Results as given in paper PMC9867241, “Antioxidant and Cytotoxic Activity of New Polyphenolic Derivatives of Quinazolin-4(3H)-one: Synthesis and In Vitro Activities Evaluation” (Pharmaceutics, 2022).
≈ marks a conversion by molar mass, not a printed value.

How the values were obtained:
[1] = DPPH˙ radical scavenging assay
Outline: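 Compounds from 1 mg/mL DMSO stocks tested at various concentrations against DPPH˙, following Brand-Williams. Scavenging followed as absorbance decrease at 517 nm by spectrophotometer; triplicate determinations, averaged.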

[2] = Cupric reducing antioxidant capacity (CUPRAC) assay; set-up: concentration or dose not given beside the values; conditions: for CUPRAC, % of Activity of Trolox: relative to Trolox; for CUPRAC, % of Activity of Ascorbic Acid: relative to ascorbic acid
Description: The ability to donate electrons was evaluated for the compounds 5a–d and 6a–d, by the CUPRAC (CUPric reducing antioxidant capacity) method. The absorbance was measured against a blank sample, at λ = 450 nm. The assay was performed based on our group’s previous report by the adaptation of the initial report of Alam et al., Özyürek et al. and Apak et al.. With the use of Equation (4), the cupric ion reduction by compounds 5a–d and 6a–d was expressed as a percentage of the reference compound activity.
The Cu^2+ ions are reduced to Cu^+ ions by the electron-donating compounds. The Cu^+ ions are chelated by neocuproine, giving a colored complex with absorbance proportional to the quantity of Cu^+ ions that resulted.

[3] = Fe^2+ chelation assay (ferrozine competition)
Outline: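 Fe²⁺ chelation by competition with ferrozine, with absorbance read at 562 nm against a blank. Chelation % = (control − sample absorbance)/control absorbance × 100.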

[4] = Cu^2+ chelation assay (murexide competition)
Outline: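 Cu^2+ chelation measured spectrophotometrically by competition with the chromophoric chelator murexide. Chelation (%) calculated from the A485/A520 absorbance ratio of sample relative to control.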

[5] = tested on: LNCaP (prostate carcinoma) cells; test: Cytotoxicity, Alamar blue assay, LNCaP cells; format: cell-based; conditions: Homo sapiens, 24 h exposure
Outline: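 Cells were seeded to reach 70–80% confluence at 24 h, then exposed to compounds at 12.5–100 µg/mL for 24 h. Viability was read by resazurin (200 µM, 4 h) fluorescence relative to 0.2% DMSO control. IC50 came from a 4-parameter logistic fit.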

[6] = Molecular properties computed with SwissADME; conditions: ratio of computed water solubilities
From the text: In order to obtain preliminary information regarding molecular properties which could influence the pharmacokinetics of the compounds, we obtained them using SwissADME [44]. The evaluated molecular properties were the topological polar surface area (TPSA), octanol–water partition coefficient expressed as Moriguchi’s LogP [46], water solubility and violations of the Lipinski’s rule of five.

Structure (SMILES) | IC50 [1] | IC50 (DPPH˙ scavenging) [1] | % of DPPH˙ Scavenging ([1]; 1.25 µg/mL) | % of DPPH˙ Scavenging ([1]; 2.5 µg/mL) | % of DPPH˙ Scavenging ([1]; 3.75 µg/mL) | % of DPPH˙ Scavenging ([1]; 5 µg/mL) | % of DPPH˙ Scavenging ([1]; 7.5 µg/mL) | % of DPPH˙ Scavenging ([1]; 10 µg/mL) | % of DPPH˙ Scavenging ([1]; 12.5 µg/mL) | % of DPPH˙ Scavenging ([1]; 15 µg/mL) | CUPRAC, % of Activity of Trolox [2] | CUPRAC, % of Activity of Ascorbic Acid [2] | Ferrous ions Chelation Capacity (%) ([3]; 17.70 µg/mL) | Ferrous ions Chelation Capacity (%) ([3]; 20.59 µg/mL) | Ferrous ions Chelation Capacity (%) ([3]; 29.41 µg/mL) | Ferrous ions Chelation Capacity (%) ([3]; 44.11 µg/mL) | Ferrous ions Chelation Capacity (%) ([3]; 58.82 µg/mL) | Ferrous ions Chelation Capacity (%) ([3]; 88.23 µg/mL) | Ferrous ions Chelation Capacity (%) ([3]; 117.64 µg/mL) | Ferrous ions Chelation Capacity (%) ([3]; 257.46 µg/mL) | also measured
CCn1c(SCC(=O)NN=Cc2ccc(O)c(O)c2O)nc2ccccc2c1=O [Compound 5c, 2-((3-Ethyl-4-oxo-3,4-dihydroquinazolin-2-yl)thio)-N’-(2,3,4-trihydroxybenzylidene)acetohydrazide] | 4.46 µM | 1.85 µg/mL (≈ 4.46 µM) | 44.32% | 55.40% | 64.87% | 73.44% | 90.15% | + (+ represents more than 95%) | + (+ represents more than 95%) | + (+ represents more than 95%) | 110.95% | 116.41% | - (- represents less than 5%) | - (- represents less than 5%) | - (- represents less than 5%) | - (- represents less than 5%) | - (- represents less than 5%) | - (- represents less than 5%) | 20.27% | 65.75% | Ferrous ions Chelation Capacity (%) ([3]; 343.28 µg/mL): 89.24%; Cupric ions Chelation Capacity (%) ([4]; 3.36 µg/mL): 13.06%; Cupric ions Chelation Capacity (%) ([4]; 8.40 µg/mL): 23.23%; Cupric ions Chelation Capacity (%) ([4]; 16.80 µg/mL): 32.60%; IC50 [5]: 35.9 µg/mL; times more soluble in water than 6b [6]: 24 times
CCCCn1c(SCC(=O)NN=C(C)c2ccc(O)cc2O)nc2ccccc2c1=O [Compound 6d, 2-((3-butyl-4-oxo-3,4-dihydroquinazolin-2-yl)thio)-N’-(1-(2,4-dihydroxyphenyl)ethylidene)acetohydrazide] | > 30 µM | >15 µg/mL | - (- represents less than 5%) | - (- represents less than 5%) | - (- represents less than 5%) | - (- represents less than 5%) | - (- represents less than 5%) | - (- represents less than 5%) | 10.99% | 13.87% | 11.25% | 11.80% | - (- represents less than 5%) | - (- represents less than 5%) | - (- represents less than 5%) | - (- represents less than 5%) | - (- represents less than 5%) | - (- represents less than 5%) | - (- represents less than 5%) | - (- represents less than 5%) | Ferrous ions Chelation Capacity (%) ([3]; 343.28 µg/mL): - (- represents less than 5%); Cupric ions Chelation Capacity (%) ([4]; 3.36 µg/mL): 5.98%; Cupric ions Chelation Capacity (%) ([4]; 8.40 µg/mL): 11.84%; Cupric ions Chelation Capacity (%) ([4]; 16.80 µg/mL): 20.42%; IC50 [5]: 24.3 µg/mL
